Experimental findings from PMC13179060, “The role of ATP synthase subunit e (ATP5I) in mediating the metabolic and antiproliferative effects of metformin in cancer cells” (eLife, 2026) are described below.

In data set [1] the target is T1, ATP synthase subunit e (ATP5I) (Homo sapiens, UniProt P56385).
T1 construct: gene ATP5ME; full-length human ATP5I, N-terminal 6x-His-tagged, expressed in E. coli (mainly oligomers, mostly decamers)
T1 sequence (P56385 1-69): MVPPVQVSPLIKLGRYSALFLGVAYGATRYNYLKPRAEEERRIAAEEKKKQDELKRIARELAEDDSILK
The data set is described as follows: SPR, BFB immobilized on streptavidin chip, recombinant ATP5I as analyte, steady-state fit; supported by streptavidin pull-down and immunoblot. It is filed as binding.

Data set [2] concerns the molecule itself. Put plainly: SEC; gel filtration of purified rATP5I (legend: Superose 12 10/300 GL for the profile, Superose 6 10/300 GL for the calibration with thyroglobulin, γ-globulin, myoglobin and vitamin B12).

For `N=C(N)NC(=N)NCCCCCCNC(=O)CCCCC1SCC2NC(=O)NC21` (centres unmarked) [compound 3, BFB], the Kd in data set [1] is about 11.1 µM.

B1: N-terminal 6x-His-tagged ATP5I (ATP synthase subunit e), recombinant (natural protein, human, UniProt P56385 1-69, looked up)
chain: T1 sequence (P56385 1-69)
notes: The vector is pET-TEV; The protein was extracted under denaturing conditions and brought back into native buffer on the column; also called rATP5I; recombinant ATP5I; not shown: His6, N-terminal, kept
As to B1, the “stoichiometry N” value in data set [2] amounted to 10.
